Laboratory results taken from patent US8178678B2, “Bis-quaternary ammonium salts and methods for modulating neuronal nicotinic acetylcholine receptors” (University of Kentucky Research Foundation, priority 2006, dated 2012).

Tests used:
[1] = target: T1, Rat Striatal Nicotinic Receptors ([^3H]NIC binding sites; α4β2) (Rattus norvegicus, UniProt P09483+P12390); assay: Inhibition of [^3H]NIC binding; details: 1 h; 100 nM analog; 3 nM [^3H]NIC; nonspecific 10 μM cytisine; rat brain membranes
T1 construct: Whole brain, excluding cortex and cerebellum, was homogenized in 20 vol of ice-cold buffer; from tissue; host or cells: rat brain membranes (whole brain excluding cortex and cerebellum)
Method: (§1) Homogenate was centrifuged (25,000 g, 15 min, 4° C). Pellets were resuspended in 20 vol buffer and incubated at 37° C., for 10 min, cooled to 4° C. and centrifuged (25,000 g, 15 min, 4° C.). Pellets were resuspended and centrifuged using the same conditions. […] Upon use, final pellets were resuspended in 20 vol assay buffer. Samples (250 μl) contained 100-140 μg of membrane protein, 3 nM [^3H]-S-nicotine or 3 nM [^3H]-methyllycaconitine (MLA), and bis-quaternary ammonium analog (100 nM) in assay buffer containing 50 mM Tris. Control was in the absence of analog. In [^3H]-S-nicotine and [^3H]-methyllycaconitine binding assays, nonspecific binding was determined in the presence of 10 μM cytisine and 10 μM S-nicotine, respectively. Incubations proceeded for 60 min at room temperature using 96-well plates and were terminated by harvesting on Unifilter-96 GF/B filter plates presoaked in 0.5% polyethylenimine, using a Packard FilterMate harvester. After washing 5 times with 350 μl ice-cold assay buffer, filter plates were dried (60 min, 4° C.), bottom-sealed, and filled with Packard's MicroScint 20 cocktail (40 μl/well). After 60 min, filter plates were top-sealed, and radioactivity determined using a Packard TopCount. Protein concentrations were determined using the Bradford dye-binding procedure bovine serum albumin as the standard.
Specific binding in the [^3H]NIC binding assay is calculated as the difference between the total binding of 3 nM [^3H]NIC and nonspecific binding in the presence of 10 μM cold cytisine. […] Analog-induced inhibition of S-nicotine-evoked [^3H]DA release is calculated as a percent of that in the absence of the bis-quaternary ammonium analog.

[2] = target: T2, Rat Striatal Nicotinic Receptors ([^3H]MLA binding sites; α7) (Rattus norvegicus, UniProt Q05941); assay: Inhibition of [^3H]MLA (methyllycaconitine) binding; details: 100 nM analog; [^3H]MLA; nonspecific S-nicotine; rat brain membranes; read-out: [^3H]MLA binding, % inhibition
T2 construct: Whole brain, excluding cortex and cerebellum, was homogenized in 20 vol of ice-cold buffer; from tissue; host or cells: rat brain membranes (whole brain excluding cortex and cerebellum)
Method: as §1, with “standard. […]” for “standard.”

[3] = tested on: nicotinic receptors mediating S-nicotine-evoked [^3H]DA release in rat striatal slices; assay: Inhibition of S-nicotine-evoked [^3H]dopamine release from superfused rat striatal slices; assay type: cell-based; details: 1 h; 100 nM analog superfused 60 min before NIC 10 μM; rat striatal slices; read-out: [^3H]DA release, % inhibition of S-nicotine-evoked release
Method: Rat striatal slices (500 μm thickness, 6-8 mg wet weight) were incubated for 30 minutes in Krebs buffer (118 mM NaCl, 4.7 mM KCl, 1.2 mM MgCl2, 1.0 mM NaH2PO4, 1.3 mM CaCl2, 11.1 mM glucose, 25 mM NaHCO3, 0.11 mM L-ascorbic acid, and 0.004 mM disodium EDTA; pH 7.4, and saturated with 95% O2/5% CO2) in a metabolic shaker at 34° C. Slices were rinsed with 15 mL of fresh buffer and incubated for an additional 30 minutes in fresh buffer containing 0.1 μM [^3H]dopamine (DA; 6 slices/3 mL). Subsequently, slices were rinsed with 15 mL of fresh buffer and transferred to a glass superfusion chamber. Slices were superfused (1.0 mL/min) for 60 minutes with Krebs buffer containing nomifensine (10 μM) and pargyline (10 μM) and maintained at 34° C., pH 7.4, with continual aeration (95% O2/5% CO2). Two five minute samples (5 mL each) were collected to determine basal outflow of [^3H]DA. The bis-quaternary ammonium analogs were added to the superfusion buffer after the collection of the second sample and remained in the buffer until 12 consecutive five minute samples were collected. Subsequently, S-nicotine (NIC; 10 μM) was added to the buffer and an additional 12 consecutive five minute samples were collected. At the end of the experiment, each slice was solubilized and the [^3H] content of the tissue determined.
Radioactivity in the superfusate and tissue samples was determined by liquid scintillation spectroscopy. Fractional release for tritium collected in each sample was divided by the total tritium present in the tissue at the time of sample collection and was expressed as a percentage of total tritium. Basal [^3H]outflow was calculated from the average of the tritium collected in the two five minute samples just before addition of the quaternary analog. The sum of the increase in collected tritium resulting from either exposure to the test compound or exposure to S-nicotine in the absence and presence of the test compound equaled total [^3H]overflow. [^3H]Overflow was calculated by subtracting the [^3H]outflow during an equivalent period of prestimulation from the values in samples collected during and after drug exposure. Inasmuch as the radiolabelled compounds were not separated and identified, the tritium collected in superfusate is referred to as either [3H]outflow or [^3H]overflow, rather than as [^3H]DA. [^3H]Overflow primarily represents [^3H]DA in the presence of nomifensine and pargyline in the superfusion buffer.
The bis-quaternary ammonium analogs were also evaluated for their ability to inhibit NIC evoked [^3H]DA release. In these experiments, the striatal slices were superfused for 60 minutes with 100 nM concentration of the quaternary analogs prior to NIC (10 μM) exposure. Antagonist activity was evaluated by comparing the NIC-evoked [^3 H]overflow in the absence and presence of the analogs. The relative order of potency of the quaternary analogs for inhibition of NIC-evoked [^3H]DA release from rat striatal slices is illustrated in Table 1.
^aData are % inhibition at 100 nM concentration of the bis-quaternary ammonium analogs for at least 1-3 independent experiments; with the exception of when a Ki value in μM is provided, in which case a full concentration effect was evaluated. Specific binding in the [^3H]NIC binding assay is calculated as the difference between the total binding of 3 nM [^3H]NIC and nonspecific binding in the presence of 10 μM cold cytisine. Specific binding for the [^3H]MLA binding assay is calculated as the difference between the total binding of […] [^3H]MLA to the receptors alone and its nonspecific binding in the presence of […] cold S-nicotine. Analog-induced inhibition of S-nicotine-evoked [^3H]DA release is calculated as a percent of that in the absence of the bis-quaternary ammonium analog.

T1 sequence (P09483 31-630): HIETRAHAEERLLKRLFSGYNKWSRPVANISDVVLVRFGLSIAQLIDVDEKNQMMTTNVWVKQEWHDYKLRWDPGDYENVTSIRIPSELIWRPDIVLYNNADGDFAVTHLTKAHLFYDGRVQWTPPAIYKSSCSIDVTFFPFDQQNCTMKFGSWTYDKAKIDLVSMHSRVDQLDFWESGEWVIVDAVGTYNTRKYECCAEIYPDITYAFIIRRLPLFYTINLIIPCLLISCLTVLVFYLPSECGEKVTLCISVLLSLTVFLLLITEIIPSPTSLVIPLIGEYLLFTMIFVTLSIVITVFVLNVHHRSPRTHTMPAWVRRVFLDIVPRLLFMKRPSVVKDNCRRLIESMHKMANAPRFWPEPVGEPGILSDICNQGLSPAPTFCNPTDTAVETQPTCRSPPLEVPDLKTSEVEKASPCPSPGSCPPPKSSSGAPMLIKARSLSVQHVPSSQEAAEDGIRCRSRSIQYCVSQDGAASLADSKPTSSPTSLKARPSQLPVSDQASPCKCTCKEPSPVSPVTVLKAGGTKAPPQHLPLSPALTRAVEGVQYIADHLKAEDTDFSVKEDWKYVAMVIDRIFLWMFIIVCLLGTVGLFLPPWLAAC
T1 sequence (P12390 25-500): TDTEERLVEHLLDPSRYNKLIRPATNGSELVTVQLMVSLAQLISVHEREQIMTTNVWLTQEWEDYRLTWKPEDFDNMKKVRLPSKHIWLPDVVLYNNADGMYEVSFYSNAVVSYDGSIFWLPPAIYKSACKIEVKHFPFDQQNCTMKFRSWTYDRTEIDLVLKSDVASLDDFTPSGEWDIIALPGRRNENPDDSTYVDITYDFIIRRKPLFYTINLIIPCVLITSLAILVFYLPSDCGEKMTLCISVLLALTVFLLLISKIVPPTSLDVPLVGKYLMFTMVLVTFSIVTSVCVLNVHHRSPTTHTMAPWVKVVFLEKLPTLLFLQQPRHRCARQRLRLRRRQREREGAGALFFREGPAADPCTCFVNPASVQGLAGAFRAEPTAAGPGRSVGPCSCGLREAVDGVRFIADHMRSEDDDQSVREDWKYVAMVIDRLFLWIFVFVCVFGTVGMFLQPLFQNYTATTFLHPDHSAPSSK
T2 sequence (Q05941 23-502): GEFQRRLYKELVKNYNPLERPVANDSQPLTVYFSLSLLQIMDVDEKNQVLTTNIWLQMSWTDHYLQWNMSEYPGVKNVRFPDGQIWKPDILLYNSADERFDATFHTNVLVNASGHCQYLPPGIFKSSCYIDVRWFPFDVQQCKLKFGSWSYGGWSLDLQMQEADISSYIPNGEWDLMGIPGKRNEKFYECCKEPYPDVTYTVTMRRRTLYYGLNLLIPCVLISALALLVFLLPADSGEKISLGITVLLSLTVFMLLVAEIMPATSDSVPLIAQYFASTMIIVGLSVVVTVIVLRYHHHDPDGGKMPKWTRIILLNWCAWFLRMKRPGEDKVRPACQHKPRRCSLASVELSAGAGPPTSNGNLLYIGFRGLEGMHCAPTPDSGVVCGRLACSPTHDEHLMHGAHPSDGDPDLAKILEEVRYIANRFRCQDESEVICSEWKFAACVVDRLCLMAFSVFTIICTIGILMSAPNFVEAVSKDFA

Structure (SMILES) | inhibition at 0.1 µM [1] [%] | inhibition at 0.1 µM [2] [%] | inhibition at 0.1 µM [3] [%]
Cc1cc[n+](CCCCCc2ccccc2CCCCC[n+]2ccc(C)c(C)c2)cc1C [Example 38, 1,2-bis-[5-(3,4-dimethyl-pyridinium)-pentyl]-benzene dibromide] | 3 | 4.6 | 10
Cc1cc(C)c[n+](CCCCCc2ccccc2CCCCC[n+]2cc(C)cc(C)c2)c1 [Example 39, 1,2-bis-[5-(3,5-dimethyl-pyridinium)-pentyl]-benzene dibromide] | 0.7 | 0 | 47
c1ccc(CCCCC[n+]2cccc3ccccc32)c(CCCCC[n+]2cccc3ccccc32)c1 [Example 40, 1,2-bis-(5-quinolinium-pentyl)-benzene dibromide] | 0 | 6.3 | 24
c1ccc(CCCCC[n+]2ccc3ccccc3c2)c(CCCCC[n+]2ccc3ccccc3c2)c1 [Example 41, 1,2-bis-(5-isoquinolinium-pentyl)-benzene dibromide] | 1.9 | 0 | 54
CN1CCCC1c1ccc[n+](CCCCCc2ccccc2CCCCC[n+]2cccc([C@@H]3CCCN3C)c2)c1 (stereo partly drawn) [Example 42, 1,2-bis-[5-(2′-S-nicotinium-pentyl)]benzene dibromide] | 71 | 11 | 59
Brc1ccc[n+](CCCCCc2ccccc2CCCCC[n+]2cccc(Br)c2)c1 [Example 44, 1,2-bis-[5-(3-bromo-pyridinium)-pentyl]-benzene dibromide] | 2.9 | 0.9 | 7
c1cc[n+](CCCCCc2ccccc2CCCCC[n+]2ccccc2)cc1 [Example 45, 1,2-bis-(5-pyridinium-pentyl)-benzene dibromide] | 3.3 | 1.9 | 37
Cc1cccc[n+]1CCCC#Cc1cccc(C#CCCC[n+]2ccccc2C)c1 [Example 48, 1,3-bis-[5-(2-methyl-pyridinium)-pent-1-ynyl]-benzene dibromide] | 1.9 | 0 | 35
Cc1ccc[n+](CCCC#Cc2cccc(C#CCCC[n+]3cccc(C)c3)c2)c1 [Example 49, 1,3-bis-[5-(3-methyl-pyridinium)-pent-1-ynyl]-benzene dibromide] | 0.5 | 8 | 6
Cc1cc[n+](CCCC#Cc2cccc(C#CCCC[n+]3ccc(C)cc3)c2)cc1 [Example 50, 1,3-bis-[5-(4-methyl-pyridinium)-pent-1-ynyl]-benzene dibromide] | 10 | 6.4 | 26
Cc1cc[n+](CCCC#Cc2cccc(C#CCCC[n+]3ccc(C)cc3C)c2)c(C)c1 [Example 51, 1,3-bis-[5-(2,4-dimethyl-pyridinium)-pent-1-ynyl]-benzene dibromide] | 7 | 5.5 | 0
Cc1cc[n+](CCCC#Cc2cccc(C#CCCC[n+]3ccc(C)c(C)c3)c2)cc1C [Example 52, 1,3-bis-[5-(3,4-dimethyl-pyridinium)-pent-1-ynyl]-benzene dibromide] | 11 | 3.3 | 11
Cc1cc(C)c[n+](CCCC#Cc2cccc(C#CCCC[n+]3cc(C)cc(C)c3)c2)c1 [Example 53, 1,3-bis-[5-(3,5-dimethyl-pyridinium)-pent-1-ynyl]-benzene dibromide] | 0 | 1.3 | 4
C(#Cc1cccc(C#CCCC[n+]2cccc3ccccc32)c1)CCC[n+]1cccc2ccccc21 [Example 54, 1,3-bis-(5-quinolinium-pent-1-ynyl)-benzene dibromide] | 16 | 3.9 | 17
C(#Cc1cccc(C#CCCC[n+]2ccc3ccccc3c2)c1)CCC[n+]1ccc2ccccc2c1 [Example 55, 1,3-bis-(5-isoquinolinium-pent-1-ynyl)-benzene dibromide] | 7.4 | 5.6 | 31
CN1CCC[C@@H]1c1ccc[n+](CCCC#Cc2cccc(C#CCCC[n+]3cccc([C@H]4CCCN4C)c3)c2)c1 [Example 56, 1,3-bis-[5(2′-S-nicotinium-pent-1-ynyl)]benzene dibromide] | 3.1 | 2.6 | 18
C(#Cc1cccc(C#CCCC[n+]2cccc(-c3ccccc3)c2)c1)CCC[n+]1cccc(-c2ccccc2)c1 [Example 58, 1,3-bis-[5-(3-phenyl-pyridinium)-pent-1-ynyl]-benzene dibromide] | 3.4 | 11 | 8
C(#Cc1cccc(C#CCCC[n+]2ccccc2)c1)CCC[n+]1ccccc1 [Example 59, 1,3-bis-(5-pyridinium-pent-1-ynyl)-benzene dibromide] | 3.6 | 4.4 | 12
